Experimental data from paper PMC11928584, “H105A peptide eye drops promote photoreceptor survival in murine and human models of retinal degeneration” (Communications Medicine, 2025).
Values joined by “and” are separate entries in the source; they are usually repeats but may differ in a detail not shown here. Equal entries are not always repeated. Where a SMILES comes first, the peptide text is derived from it.

Test system: human iPSC-derived retinal organoids exposed to CSE
Test: TUNEL staining of retinal organoid sections
Format: cell-based
Conditions: Figure 8f; CSE + peptide; individual values, n=5
Experimental: Human iPSCs were differentiated into retinal organoids (ROs) following the protocol by Zhong et al.[41]. Briefly, on Day 0, hiPSC colonies were dissociated with dispase and grown in a suspension to form embryoid bodies, and slowly transitioned to neural induction media (DMEM/F12 (1:1), 1% N2 supplement (Invitrogen), 1 x minimum essential media-nonessential amino acids (NEAAs), 2 µg/ml heparin (Sigma)). On Day 7, EBs were seeded on Matrigel coated plates and maintained in neural induction media. On Day 16, the media was switched to the retinal differentiation medium (DMEM/F12 (3:1), 2% B27 (without vitamin A, Invitrogen), 1x NEAA and 1% antibiotic–antimycotic (Gibco)). Retinal domains were identified and lifted manually with tungsten needles between Day 21 and Day 26 under a phase contrast microscope. On day 30, the culture medium was transitioned to DMEM/F12 (3:1) with 2% B27, 1x NEAA, 1% antibiotic–antimycotic, 10% fetal bovine serum (FBS; Gibco), […] Taurine (Sigma), and 2 mM GlutaMAX (Invitrogen). Additionally, 1 µM retinoic acid supplement was introduced daily starting from day 63. On day 91, the medium was modified to DMEM/F12 (1:1) supplemented with 1% N2, 1 x NEAAs, 1% antibiotic–antimycotic, 10% FBS, […] Taurine and 2 mM GlutaMAX, and the concentration of retinoic acid supplementation was reduced to 0.5 µM for the remainder of the culture period. The use of hiPSCs in this study conforms to the University of Colorado Institutional Biosafety Committee standards. […]
D180 ROs were treated with each of the 5 experimental conditions, as described above (n = 5 for each condition), washed with PBS three times, and fixed with 4% paraformaldehyde for 10 min at room temperature. […] Fluorescence images were acquired with a Nikon C2 Confocal Microscope A1 (Minato City, Tokyo, Japan) and stitched together using Nikon Elements Software. Images were analysed with Fiji. The relative area of positive immunostaining was calculated as a percentage of total retinal area. […]

With `CC[C@H](C)[C@H](NC(=O)[C@H](CC(C)C)NC(=O)[C@H](CC(=O)O)NC(=O)[C@H](Cc1ccc(O)cc1)NC(=O)[C@H](Cc1ccc(O)cc1)NC(=O)[C@H](CC(C)C)NC(=O)[C@H](C)NC(=O)[C@H](CCCNC(=N)N)NC(=O)[C@H](Cc1c[nH]cn1)NC(=O)[C@@H](NC(=O)[C@@H](NC(=O)[C@H](CO)NC(=O)[C@H](CCC(=O)O)NC(=O)[C@@H](NC(=O)[C@H](C)NC(=O)[C@@H](N)CCC(N)=O)[C@@H](C)O)[C@@H](C)CC)[C@@H](C)CC)C(=O)N[C@@H](CO)C(=O)O` [R99A] (H-QATESIIHRALYYDLIS-OH) the “Relative TUNEL(+) area” value was 4.87 and 4.90 and 3.81 and 6.35 and 6.42.
